Data on 1 compound can be found in US20070010527A1, “4-Anilino-3-quinolinecarbonitriles for the treatment of cancer” (priority 2005, published 2007).

One assay concerns HS-294-T melanoma cells. In words: Proliferation assay, SRB. It counts as cell-based. Particulars: Homo sapiens, 96 h, day 4. Here is the method: (§1) For the experiments described in Table 3, 1000 cells were plated in each well of a 96 well cell culture dish on day 0 in the standard growth medium for that particular cell line. Compound was added on day 1. Relative cell number was determined on day 4.
(§2) The sulforhodamine B (SRB) assay was used for certain melanoma lines. In this assay, the serum concentration in the growth medium was 5% and culture medium volume was 0.2 ml. On day 4, 0.05 ml of 50% trichloroacetic acid was added to the medium and the plate was allowed to sit at room temperature for 1 hour. The medium was decanted and the plate was washed 3 times with water. The washed plates were dried, and then 0.08 ml of SRB reagent (SRB was obtained from Sigma; 0.4% SRB in 1% acetic acid) was added. After 10 minutes at room temperature, the plates were washed with 1% acetic acid until no free red color remained in solution. The bound SRB reagent was solubilized with 0.15 ml 10 mM Tris (no acid added). After agitating for 5 minutes on a shaker, the absorbance was read at 540 nm.

Another assay relates to RPMI-7951 melanoma cells. In words: Proliferation assay, SRB. It is filed as cell-based. The conditions noted are these: Homo sapiens, RPMI-7951, 96 h, day 4. Here is the method: as §1, §2
Assay [1] has as its system A375 melanoma cells. In words: Proliferation assay, SRB. It is filed as cell-based. Particulars: Homo sapiens, A-375, 96 h, day 4. Here is the method: as §1, §2
Assay [2] has as its system BxPC3 pancreatic tumor cells. In words: Proliferation assay, CellTiter-Glo. It counts as cell-based. Particulars: Homo sapiens, BXPC-3, 96 h, Cell-glo, day 4. Here is the method: as §1
(§3) The CellTiter-Glo luminescent cell viability assay (Promega #G7573) was used where cells were lysed with the CellTiter Glo reagent, agitated briefly and allowed to sit at room temperature for 30 minutes prior to analyzing on a Wallac plate reader equipped for luminescence readings.
Background: In ATP-based viability assays light output follows the ATP content of the culture.

Assay [3] deals with Capan pancreatic tumor cells. In words: Proliferation assay, CellTiter-Glo. It counts as cell-based. Particulars: 96 h, Cell-glo, day 4. As for the experimental part:
as §1, §3

The subject of assay [4] is LnCap prostate tumor cells. In words: Proliferation assay, CellTiter-Glo. Particulars: Homo sapiens, 96 h, Cell-glo, day 4. It is filed as cell-based. Here is the method: as §1, §3
In assay [5] the test system is A375 melanoma cells. In words: Proliferation assay, CellTiter-Glo. It counts as cell-based. Particulars: Homo sapiens, A-375, 96 h, Cell-glo, day 4. As for the experimental part: as §1, §3
Assay [6] concerns HN5 head and neck tumor cells. In words: Proliferation assay, CellTiter-Glo. Particulars: 96 h, Cell-glo, day 4. It is filed as cell-based. Here is the method:
as §1, §3

Assay [7] concerns MiaPaca pancreatic tumor cells. In words: Proliferation assay, CellTiter-Glo. It counts as cell-based. The conditions noted are these: Homo sapiens, MIA PaCa-2, 96 h, Cell-glo, day 4. Here is the method: as §1, §3
The subject of assay [8] is DU145 prostate tumor cells. In words: Proliferation assay, CellTiter-Glo. It is filed as cell-based. Particulars: Homo sapiens, DU-145, 96 h, Cell-glo, day 4. As for the experimental part: as §1, §3
Assay [9] deals with A375 melanoma subcutaneous tumor xenografts. In words: A375 melanoma subcutaneous tumor xenograft in nude mice. It counts as in vivo. The conditions noted are these: 30 mg/kg bid ip 9 days, day 12. Here is the method:
All animal studies were conducted under an approved Institutional Animal Care and Use Committee protocol. Tumor cells were suspended to 50 million cells/ml and 0.2 ml of the cell suspension was injected subcutaneously into a flank of 6-7 weeks old female nude mice (Charles River, Wilmington, Mass.). Mice with tumors larger than 200 mm^3 after one week were administered vehicle or compound by intraperitoneal injection at the indicated doses in 0.2 ml of vehicle containing 0.5% methylcellulose and 0.4% polysorbate 80 (Tween 80).

The next assay has as its target T1, PKA (Bos taurus, UniProt P00517).
T1 construct: purchased Upstate 14-114
In words: PKA Scintiplate kinase assay. It counts as biochemical. An excerpt:
PKA, PKC, S6 kinase, CAMKII and p38 kinase assays.

For another assay, the target named is CAMKII. In words: CAMKII kinase ELISA. It counts as biochemical. As for the experimental part: Assay Dilution Buffer (ADB): 20 mM MOPS, pH 7.2, 25 mM β-glycerol phosphate, 5 mM EGTA, 1 mM sodium orthovanadate, 1 mM dithiothreitol. 2. […] 3. […] 4. […] 5. […] 3. […] 4. […] 5. […] 6. […] 7.
Background: An ELISA detects its analyte on a solid surface through an enzyme-linked reagent.

The subject of assay [10] is Molt-4 T-cell leukemia cells. In words: Proliferation assay, MTS. It counts as cell-based. Particulars: Homo sapiens, MOLT-4, 96 h, day 4. As for the experimental part: as §1
(§4) Some assays were monitored with the aid of the CellTiter 96 assay (Promega #G3580). With this assay, on day 4, detection reagent was added to the 96 well plate and absorbance at 490 nm was measured.

Assay [11] relates to HSB-2 T-cell leukemia cells. In words: Proliferation assay, MTS. It is filed as cell-based. The conditions noted are these: HSB2, 96 h, day 4. Here is the method: as §1, §4
In assay [12] the test system is HN5 head and neck tumor line. In words: Phosphorylation of downstream proteins in EGF-stimulated HN5 cells. It counts as cell-based. The conditions noted are these: serum-starved HN5 cells, compound 4 hours, then EGF 50 ng/ml ten minutes. As for the experimental part:
FIG. 1. […] Serum-starved HN5 cells were treated with the compound for 4 hours, after which EGF was added to 50 ng/ml for ten minutes. Lysates were analyzed for Stat3 Y705, c-Cbl Y731 and Y774 and caveolin Y14 phosphorylation.

The term IC50 denotes the concentration at which inhibition is half-maximal. On to `COc1cc(Nc2c(C#N)cnc3cc(OCCCN4CCN(C)CC4)c(OC)cc23)c(Cl)cc1Cl` [4-(2,4-dichloro-5-methoxy-phenylamino)-6-methoxy-7-[3-(4-methyl-piperazin-1-yl)-propoxy]-quinoline-3-carbonitrile], for which the half-maximal inhibitory concentration (IC50) with HS-294-T melanoma cells worked out at 600 nM; in the assay with RPMI-7951 melanoma cells, 1200 nM; in the assay on A375 melanoma cells [1], 900 nM; in assay [2] it was 3900 nM; in [3] it was 5900 nM; in assay [4], 3500 nM. Moreover, the IC50 with A375 melanoma cells [5] is 1200 nM; in [6], 300 nM; in [7], 1300 nM; in assay [8], 1600 nM; against PKA it was 5030 nM; at CAMKII, 6250 nM. The IC50 in [10] came out at 8200 nM; in [11] it was 14 nM. Besides, in assay [9], the T/C is given as 39%, day 12. Also, the “phosphorylation of Y705 of Stat3” value in [12] is on record as “reduced”. In addition, in [12], the “phosphorylation of c-Cbl Y731” value is given as “reduced”. In addition, in assay [12], the “phosphorylation of caveolin Y14” value is reported as “reduced”.
